A short description of series [1]: Cytotoxicity against HEK293 cells assessed as inhibition of cell growth incubated for 24 hrs by MTT assay. Type of series: toxicity, cell-based. The note with it: human. (In general: Formazan colour is commonly taken as a measure of viable cells.)
The target in series [2] is Glucagon receptor (Homo sapiens) (UniProt P47871). Description: Antagonist activity at GCGR (unknown origin) expressed in HEK293 cells assessed as inhibition of GCG binding by measuring increase in fluorescence intensity at 10 uM incubated for 30 to 40 mins by FLUO-4 AM fluorescence based flow cytometric analysis. The note with it: filed as antagonist, time 30-40 min. It is filed as functional, cell-based.
Chain of Glucagon receptor (Homo sapiens) (P47871 whole entry): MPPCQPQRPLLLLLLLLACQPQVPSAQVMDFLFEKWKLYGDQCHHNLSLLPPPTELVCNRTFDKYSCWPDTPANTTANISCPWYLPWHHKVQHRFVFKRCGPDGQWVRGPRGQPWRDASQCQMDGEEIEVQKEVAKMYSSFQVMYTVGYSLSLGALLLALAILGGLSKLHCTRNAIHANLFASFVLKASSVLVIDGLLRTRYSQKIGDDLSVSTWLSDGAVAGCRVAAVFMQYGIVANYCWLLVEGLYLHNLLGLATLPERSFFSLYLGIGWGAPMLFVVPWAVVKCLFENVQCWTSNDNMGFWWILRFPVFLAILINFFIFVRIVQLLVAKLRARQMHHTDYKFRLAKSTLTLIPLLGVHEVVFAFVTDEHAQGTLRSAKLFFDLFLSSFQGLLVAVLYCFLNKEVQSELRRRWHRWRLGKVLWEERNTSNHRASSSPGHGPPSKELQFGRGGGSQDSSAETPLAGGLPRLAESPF

For series [3] the target is unchanged. As to the kind of experiment: Antagonist activity at […] (unknown origin) expressed in HEK293 cells assessed as inhibition of GCG binding by measuring increase in fluorescence intensity at 0.1 mM incubated for 30 to 40 mins by FLUO-4 AM based inverted fluorescence microscopic imaging analysis. It is filed as functional, cell-based. The note with it: filed as antagonist, time 30-40 min.

The source made the active and inactive calls. The calls are words filed in the database; no cut-off is given here.

As for `COc1cc2c(cc1OC)[C@@H](Cc1ccc(Oc3cc(C[C@H]4c5cc(OC)c(OC)cc5CCN4C)ccc3O)cc1)N(C)CC2`, the IC50 at 24 h in series [1] turned out to be 10.6 µM. For the same molecule, in series [2], the outcome was Active. On to H-SQGTFTSEYSKYLDSRRAQDFVQWL-NH2, for which, in series [3], the outcome was Active.

In general, IC50 refers to the point on the concentration scale where inhibition reaches its midpoint.

The values above are taken from ChEMBL document CHEMBL5120925, “Antagonistic Effect and In Vitro Activity of Dauricine on Glucagon Receptor” (J Nat Prod, 2022).
